Reference: patent US7332290B2, “Dectection of AMACR cancer markers in urine” (The Regents of the University of Michigan, priority 2001, dated 2008)
Peptide text beside a SMILES is read from it. * marks the point of attachment. Cbz = O=C(OCc1ccccc1)*; CH2F = FC*

Experiments:
Format in all cases: cell-based
prostate cells = experiment: WST-1 cell proliferation assay after siRNA transfection; settings: WST-1, caspase inhibitor added to EZH2 siRNA treated cells
Method: 21-nucleotide sense and antisense RNA oligonucleotides were chemically synthesized (Dharmacon Research Inc.) and annealed to form duplexes. The siRNA employed in the study were targeted to the region corresponding from 85 to 106 of the reported human EZH2 (NM004456). Control siRNA duplexes targeted luciferase, lamin and AMACR (NM014324). The human transformed prostate cell line RWPE (Webber et al., Carcinogenesis 18:1225 [1997]) and PC3 were plated at 2×10^5 cells per well in a 12 well plate (for immunoblot analysis, cell counts, and fluorescence activated cell sorting (FACS) analysis) and 1.5×10^4 cell per well in a 96 well plate (for WST-1 proliferation assays). Twelve hours after plating, the cells were transfected with 60 picomoles of siRNA duplex, sense or antisense oligonucleotides (targeting EZH2) using oligofectamine (Invitrogen). […] Cell viability was assessed 60 hours after the initial transfection.
Cell proliferation was determined with the colorimetric assay of cell viability, based on the cleavage of tetrazolium salt WST-1 by mitochondrial dehydrogenases as per manufacturers instructions (Roche, Inc.). The absorbance of the formazan dye formed, which directly correlates with the number of metabolically active cells in the culture, was measured at 450 nm (Bio-Tek instruments), an hour after the addition of the reagent. […]

LNCaP cells = experiment: Androgen/anti-androgen treatment of LNCaP cells, Western blot of AMACR and PSA; settings: LNCaP cells exposed to synthetic androgen, 1 nM, 24 and 48 h
Method: Prostate cell lines (RWPE-1, LNCaP, PC3 and DU145) were obtained from the American Tissue Culture Collection. Cells were maintained in RPMI-1640 with 8% decomplemented fetal bovine serum, 0.1% glutamine and 0.1% penicillin and streptomycin (BioWhittaker, Walkersville, Md.). Cells were grown to 75% confluence and then treated for 24 and 48 with the antiandrogen bicalutamide (CASODEX, Zeneca Pharmaceuticals, Plankstadt, Germany) at a final concentration of 20 μM or with methyltrienolone (synthetic androgen (R1881); NEN, Life Science Products, Boston, Mass.) at a final concentration of 1 nM. Cells were harvested and lysed in NP-40 lysis buffer containing 50 mmol/L Tris-HCl, pH 7.4, 1% Nonidet P-40 (Sigma, St. Louis, Mo.) and complete proteinase inhibitor cocktail (Roche, Ind., USA). 15 μg of protein extracts were mixed with SDS sample buffer and electrophoresed onto a 10% SDS-polyacrylamide gel under reducing conditions. After transferring, the membranes (Amersham Pharmacia Biotech, Piscataway, N.J.) were incubated for 1 hour in blocking buffer (Tris-buffered saline with 0.1% Tween and 5% nonfat dry milk). The AMACR antibody was applied at 1:10.000 diluted blocking buffer overnight at 4° C. […]

HDAC activity = experiment: DNA microarray of EZH2-transfected cells, EZH2-mediated gene silencing
Description: Other molecules have been similarly tested with this approach. Cells were transfected with different EZH2 constructs and transfection efficiency was monitored by beta-galactosidase assay and was approximately 30-50%. EZH2.SET mutant expressing samples were compared to EZH2 expressing samples using the SAM analysis package (Tusher et al., PNAS 98:5116 [2001]). Data was pre-processed by multiplication by a normalization factor to adjust the aggregate ratio of medians to one, log base 2 transformed and median centered each array, individually. This pre-processed data was divided into 2 groups for comparison using a two-class, unpaired t-test. […] These 161 genes were supplemented by the values for EZH2 and then analyzed using Cluster implementing average linkage hierarchical clustering of genes. […]
PcG proteins have been proposed to mediate their functions by repression of target genes (Laible et al., supra; Jacobs et al., Semin Cell Dev. Biol. 10:227 [1999]). To begin to test this hypothesis, RWPE prostate cells were transiently transfected with wild-type EZH2 and global gene expression alterations were monitored using DNA microarrays. […]

COC(=O)C[C@H](NC(=O)[C@H](C)NC(=O)[C@@H](NC(=O)OCc1ccccc1)C(C)C)C(=O)CF [z-VAD-fmk] (Cbz-Val-Ala-Asp(OMe)-CH2F)
attenuation of EZH2 siRNA induced inhibition of cell proliferation (prostate cells): failed to attenuate

C[C@]1(O)CC[C@H]2[C@@H]3CCC4=CC(=O)CCC4=C3C=C[C@@]21C [R1881, methyltrienolone]
AMACR expression (LNCaP cells): no increase in AMACR expression

CC(/C=C/C(=O)NO)=C\[C@@H](C)C(=O)c1ccc(N(C)C)cc1 [trichostatin A]
effect on EZH2-mediated gene silencing (HDAC activity): completely abrogated the effects of EZH2
